Data as given in paper PMC9895061 (Signal Transduction and Targeted Therapy, 2023).
Read-outs that look alike come from different tables or passages of the source.

Legend:
HCT116 cells [1] = assay: CCK-8 proliferation assay, HCT116; format: cell-based; details: Homo sapiens, HCT-116; 24 h treatment
Experimental: (§1) SW620 or HCT116 cells were seeded into 96-well plate overnight at 5000 cells per well or 4000 cells per well respectively. […] Cell numbers were assessed using the CCK-8 reagent at OD 450. The IC50 values were calculated by fitting the data points with the dose-response function in GraphPad.

SW620 cells [2] = assay: ROS measurement by DCFH-DA staining and flow cytometry, SW620; format: cell-based, human; details: 2 μM, 24 h
Experimental: (§2) […]. DCFH-DA was deacetylated by intracellular esterase to a non-fluorescent compound, which was later oxidized by intracellular ROS to the fluorescent DCF. DCF fluorescence was detected using flow cytometer and data was analyzed using FlowJo software (version 10.4).
(§3) g, h ROS measurement of SW620 (g) and HCT116 (h) cells with compounds treatment. […].

NCM460 cells [3] = assay: ROS measurement by DCFH-DA staining and flow cytometry, NCM460; format: cell-based, human; details: 2 μM, 24 h
Experimental: as §2
b ROS measurement of NCM460 cells with compounds treatment. […].

HCT116 cells [4] = assay: Cell viability by trypan blue staining, HCT116; details: for viability at 0.5 µM: Homo sapiens, HCT-116, 24 h, read-out: cells viability, HCT116
Experimental: (§4) Total cell number and viability were counted with trypan blue staining. To measure apoptosis, cells were harvested and followed by flow cytometric analysis using the Annexin V-FITC / PI apoptosis detection kit according to the manufacturer’s protocol. Cell apoptosis was analyzed by FlowJo software.
(§5) e, f Cell viability were measured by trypan-blue staining.

PRDX6 = molecular target: T1, PRDX6 (Homo sapiens, UniProt P30041); assay: Trx-TrxR-NADPH coupling peroxiredoxin activity assay, PRDX6; format: biochemical
T1 sequence (P30041 1-224): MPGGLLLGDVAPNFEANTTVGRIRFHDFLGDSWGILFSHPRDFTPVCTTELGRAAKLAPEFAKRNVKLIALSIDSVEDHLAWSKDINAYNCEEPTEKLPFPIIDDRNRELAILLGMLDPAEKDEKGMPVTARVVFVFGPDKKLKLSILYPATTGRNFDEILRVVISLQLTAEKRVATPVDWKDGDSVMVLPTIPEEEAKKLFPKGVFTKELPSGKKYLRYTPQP
Experimental: The assay was conducted in 96-well plates as previously described.[47] […] Then, the mixture solution containing 0.3 µM yeast Trx, 0.15 µM yeast TrxR and 200 µM NADPH was added to assay wells. The reaction was initiated with 100 µM hydrogen peroxide (H2O2) and detected with Thermo Multiskan FC at 340 nm. For PRDX1-6, the work concentration is 0.6 µM, 1.5 µM, 1 µM, 3 µM, 0.5 µM, 10 µM respectively. The initial reaction’s slope of assay wells containing mixture solution and H2O2 without PRDXs and compounds (S100%) were considered as 100 % inhibition of PRDXs’ peroxidase activity. The initial reaction’s slope of assay wells containing mixture solution, H2O2 and PRDXs without compounds (S0%) were considered as 0% inhibition of PRDXs’ peroxidase activity. […] The inhibition rate (%) was calculated from the following equations: 100 – (Scompound − S100%)/(S0% − S100%) × 100. […] Data were analyzed using GraphPad (version 8.0).

SW620 cells [5] = assay: Cell viability by trypan blue staining, SW620; details: for viability at 0.5 µM: Homo sapiens, SW-620, 24 h, read-out: cells viability, SW620
Experimental: as §4, §5

NCM460 cells [6] = assay: Proliferation IC50 in NCM460; format: cell-based; details: Homo sapiens, NCM460, 24 h, read-out: IC50 of proliferation, NCM460
SW620-gNS xenografts = assay: SW620-gNS xenograft tumor growth in nude mice; details: 2 mg/kg intraperitoneally, 5 days per week for 2 weeks
gNS SW620 cells = assay: Proliferation IC50 in scrambled (gNS) SW620 cells; format: cell-based; details: Homo sapiens, SW-620, 24 h, read-out: IC50 against the proliferation of scrambled (gNS) SW620 cells
Experimental: (§6) To generate PRDX1 knockdown cell lines, gRNA targeting […] was cloned into the vector pHBLV-U6-gRNA-EF1-CAS9-PURO from HanBio. The gRNA, psPAX2, and pMD2·G plasmids were mixed and co-transfected into HEK293T cells using Lipofectamine 2000 (Thermo Fisher Scientific). Medium with lentiviruses was collected and filtered through 0.45 μm filters at 48 h after transfection. Lentiviruses was used to infect the indicated cells with 8 μg/mL polybrene (Sigma-Aldrich) for 2 days. The infected cells were selected in medium containing 2 μg/mL puromycin (Sigma-Aldrich) for 3 days, and PRDX1 protein expression level were examined by western blot.
as §1

gPRDX1 SW620 cells = assay: Proliferation IC50 in PRDX1 knockdown (gPRDX1) SW620 cells; format: cell-based; details: Homo sapiens, SW-620, 24 h, read-out: IC50 against the proliferation of PRDX1 knockdown (gPRDX1) SW620 cells
Experimental: as §6, §1

PRDX5 = molecular target: T2, PRDX5 (Homo sapiens, UniProt P30044); assay: Trx-TrxR-NADPH coupling peroxiredoxin activity assay, PRDX5; format: biochemical
T2 sequence (P30044 53-214): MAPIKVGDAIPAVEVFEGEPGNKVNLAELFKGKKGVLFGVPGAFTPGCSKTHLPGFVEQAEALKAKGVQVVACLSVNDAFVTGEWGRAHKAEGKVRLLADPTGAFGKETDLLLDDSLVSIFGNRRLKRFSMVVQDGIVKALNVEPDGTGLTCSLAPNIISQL

HCT116 cells [7] = assay: ROS measurement by DCFH-DA staining and flow cytometry, HCT116; format: cell-based, human; details: 2 μM, 24 h
Experimental: as §2, §3

PRDX3 = molecular target: T3, PRDX3 (Homo sapiens, UniProt P30048); assay: Trx-TrxR-NADPH coupling peroxiredoxin activity assay, PRDX3; format: biochemical
T3 sequence (P30048 62-256): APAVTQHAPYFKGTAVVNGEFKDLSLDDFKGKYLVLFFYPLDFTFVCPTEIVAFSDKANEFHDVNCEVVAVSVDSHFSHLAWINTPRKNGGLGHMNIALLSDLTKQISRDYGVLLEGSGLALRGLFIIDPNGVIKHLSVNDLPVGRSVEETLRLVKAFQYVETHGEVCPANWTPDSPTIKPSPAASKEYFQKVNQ

PRDX4 = molecular target: T4, PRDX4 (Homo sapiens, UniProt Q13162); assay: Trx-TrxR-NADPH coupling peroxiredoxin activity assay, PRDX4; format: biochemical; details: for inhibition of the peroxidase activity of PRDX4 (in words): recombinant PRDX4
T4 sequence (Q13162 38-271): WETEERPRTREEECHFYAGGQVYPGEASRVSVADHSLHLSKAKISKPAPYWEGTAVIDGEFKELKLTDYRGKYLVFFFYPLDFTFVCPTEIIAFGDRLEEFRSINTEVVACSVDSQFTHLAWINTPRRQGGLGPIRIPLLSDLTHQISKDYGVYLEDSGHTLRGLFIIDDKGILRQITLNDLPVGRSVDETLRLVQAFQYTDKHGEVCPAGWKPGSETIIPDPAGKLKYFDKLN

Row | Compound | IC50 (HCT116 cells [1]) | ROS-positive rate, SW620 (SW620 cells [2]) | intracellular ROS positive rate, NCM460 (NCM460 cells [3]) | viability at 0.5 µM (HCT116 cells [4]) | viability at 0.5 µM (SW620 cells [5]) | IC50 (NCM460 cells [6]) | tumor progression of SW620-gNS xenografts (in words) (SW620-gNS xenografts) | IC50 (gNS SW620 cells) | IC50 (gPRDX1 SW620 cells) | ROS-positive rate, HCT116 (HCT116 cells [7]) | inhibition of the peroxidase activity of PRDX4 (in words) (PRDX4) | further results
1 | CC1=C(O)C(=O)C=C2C1=CC=C1[C@@]2(C)CC[C@@]2(C)[C@@H]3C[C@](C)(C(=O)O)CC[C@]3(C)CC[C@]12C [Celastrol, reference compound] | 894 nM | 61.07% | 26.5% | ~80% | ~80% | 2660 nM | suppressed the overall tumor progression | 634 ± 11.3 nM | 494 ± 10.8 nM | 88.4% | no obvious inhibitory effect | IC50 (PRDX6; recombinant PRDX6, 1.5 h incubation, mean ± SEM, triplicate, read-out: IC50 against the peroxidase activity of PRDX6): 27300 ± 390 nM; IC50 (PRDX5): 2300 ± 130 nM; IC50 (PRDX3): 6670 ± 520 nM; IC50 (PRDX4): > 100000 nM
2 | COC(=O)[C@H](C)NC(=O)N[C@]1(C)CC[C@]2(C)CC[C@]3(C)C4=CC=C5C(=CC(=O)C(O)=C5C)[C@]4(C)CC[C@@]3(C)[C@@H]2C1 [19-048, Methyl (((2R,4aS,6aS,12bR,14aS,14bR)-10-hydroxy-2,4a,6a,9,12b,14a-hexamethyl-11-oxo-1,2,3,4,4a,5,6,6a,11,12b,13,14,14a,14b-tetradecahydropicen-2-yl)carbamoyl)-L-alaninate] | 816 nM | 74.77% | 29.13% | ~80% | ~80% | 2230 nM | suppressed the overall tumor progression | 529 ± 6.69 nM | 431 ± 9.14 nM | 91.7% | no obvious inhibition | cell viability at high concentrations, HCT116 (in words) (HCT116 cells [4]; 1, 2 μM, 24 h, trypan blue): significantly decreased cell viability; IC50 (PRDX6): > 100000 nM; inhibition of the peroxidase activity of PRDX6 (in words) (PRDX6; recombinant PRDX6): no obvious inhibition; cell viability at high concentrations, SW620 (in words) (SW620 cells [5]; 1, 2 μM, 24 h, trypan blue): significantly decreased cell viability; inhibition of the peroxidase activity of PRDX5 (in words) (PRDX5; recombinant PRDX5): no obvious inhibition; IC50 (PRDX5; recombinant PRDX5, 1.5 h incubation, mean ± SEM, triplicate, read-out: IC50 against the peroxidase activity of PRDX5): > 100000 nM; inhibition of the peroxidase activity of PRDX3 (in words) (PRDX3; recombinant PRDX3): no obvious inhibition; IC50 (PRDX3; recombinant PRDX3, 1.5 h incubation, mean ± SEM, triplicate, read-out: IC50 against the peroxidase activity of PRDX3): > 100000 nM; IC50 (PRDX4; recombinant PRDX4, 1.5 h incubation, read-out: IC50 against the peroxidase activity of PRDX4): > 100000 nM
